Measurements published in patent US11198680B2 (BioAxone BioSciences, Inc., priority 2016, dated 2021).
Read-outs that look alike come from different tables or passages of the source.

Key:
[1] = biological target: NET (norepinephrine transporter) (Homo sapiens (Human), UniProt P23975); conditions: Sturdivant et al., ibid.; cited from earlier work
[2] = biological target: SERT (serotonin transporter) (Homo sapiens (Human), UniProt P31645); conditions: Sturdivant et al., ibid.; cited from earlier work
ROCK2 [3] = biological target: T1, ROCK2 (Homo sapiens (Human), UniProt O75116); test: Direct filter-binding radiometric kinase assay, IC50 determination; assay type: biochemical
ROCK2 [4] = biological target: T1, ROCK2; conditions: for Fold-Difference: ROCK1 KD vs ROCK2 KD
Procedure: (§1) The assay is performed by combining the DNA-tagged kinase, immobilized ligand, and a test compound. The ability of the test compound to compete with the immobilized ligand is measured via quantitative PCR of the DNA tag.
(§2) The highest concentration tested was 30 μM.

[5] = tested on: Rho/ROCK activity (MLC2 diphosphorylation) in HUVECs; test: LPA-treated HUVECs, pMLC2 T18/S19 immunoblot; assay type: cell-based, human; conditions: 1-100 μM 1 hr, 20 μM LPA 5 min
Procedure: (§3) Cell lines were exposed to each dose for 1 hr, and then are stimulated with 20 μM LPA for either 5 min or 1 hr as described below. All experiments were conducted in triplicate and analyzed by two independent assessors blinded to both cell line and treatment.
Cells were subjected to biochemical analysis of diphosphorylated MLC2 (Threonine 18/Serine 19 phosphorylation sites) and cofilin (Serine 9 phosphorylation site) using SDS-PAGE and immunoblotting. Cells were plated in 24-well tissue culture plates coated with 70 μg/ml rat collagen-1 (Corning; Corning, N.Y.), and grown for 2 d to 3 d at 37° C./5% CO2 until confluency. […] Then medium was exchanged for Medium 200 supplemented with 0.1% HSA (Sigma-Aldrich) and 20 μM of LPA (Santa Cruz Biotech; Santa Cruz, Calif.) and incubated for 5 min. After LPA stimulation, proteins were extracted from cells by lysis with RIPA buffer supplemented with HALT complete protease/phosphatase inhibitor (ThermoFisher, Waltham, Mass.), reduced and denatured using Laemmli sample buffer (BioRad, Hercules, Calif.)/beta-mercaptoethanol and subjected to SDS-PAGE.
Denatured samples were electrophoresed in reducing 10% Bis-Tris-gels polyacrylamide gels (Novex; Thermo-Fisher, Waltham, Mass.) and were transferred onto 0.25 μm PVDF membranes (EMD Millipore, Billerica, Mass.). Membranes are probed using amti-pMLC2 T18/S19 (1:500; Cell Signaling, Danvers, Mass.) or anti-pCofilin S9 (1:500, Cell Signaling, Danvers, Mass.) and anti-glyceraldehyde 3-phosphate dehydrogenase loading control (GAPDH, 1:10000; Abcam). Protein levels were detected using chemiluminescence substrate (Super Signal West, ThermoFisher, Waltham, Mass.) and images captured using a FluoroChem SP Imaging System.

[6] = tested on: Rho/ROCK activity (MLC2 diphosphorylation) in human brain microvascular endothelial cells; test: LPA-treated hBMVECs, pMLC2 T18/S19 immunoblot; assay type: cell-based; conditions: 20 μM LPA, Example 16, present tense, no data shown
Procedure: (§4) Cells are exposed to each dose for 1 hr, and are then stimulated with 20 μM LPA for either 5 min or 1 hr as described below. All experiments are conducted in triplicate and analyzed by 2 independent assessors blinded to both cell line and treatment.
Cells are subjected to biochemical analysis of diphosphorylated MLC2 (Threonine 18/Serine 19 phosphorylation sites) and phosphorylated cofilin (Serine 9 phosphorylation site) using SDS-PAGE and immunoblotting. Cells are plated in 24-well tissue culture plates coated with 70 μg/ml rat collagen-1 (Corning) and grown in ENDO-growth media (Neuromics) for 3 days at 37° C./5% CO2 until confluency. […] The medium is exchanged for ENDO basal media supplemented with 1% HSA, 20 μM of LPA (Santa Cruz Biotech; Santa Cruz, Calif.) and the appropriate amount of compound being tested. After 5 min, the medium is aspirated and the cells are briefly washed with 1×PBS. Proteins are extracted from cells by lysis with RIPA buffer supplemented with complete protease/phosphatase inhibitor (HALT, Thermo Fisher Scientific), reduced and denatured using Laemmli sample buffer (BioRad; Hercules, Calif., beta-mercaptoethanol and subjected to SDS-PAGE.
Denatured samples are electrophoresed in reducing 10% Bis-Tris-PA gels (Novex; Thermo-Fisher), and are transferred onto 0.25 μm PVDF membranes (EMD Millipore). Membranes are probed using amti-pMLC2 T18/S19 (1:500; Cell Signaling) or anti-pCofilin (1:500, Cell Signaling S9) and anti-glyceraldehyde 3-phosphate dehydrogenase loading control (GAPDH, 1:10000; Abcam, Cambridge, Mass.). Protein levels are detected using a chemiluminescence substrate (Super Signal West, ThermoFisher) and images are captured using a FluoroChem SP Imaging System.

hBMVEC monolayer = test: LPA-treated hBMVECs, endothelial monolayer integrity; assay type: cell-based, human; conditions: 1 μM or 10 μM, 20 μM LPA, Example 16, present tense
Procedure: as §4
To examine hBMVECs monolayer integrity, cells are plated on PDL-coated coverslips (Corning) coated with Fibronectin, Collagen-1 and gelatin. 50,000 cells are seeded on each coverslip situated in a 24-well plate. Cells are grown for 3 days in ENDO-growth media (Neuromics) at 37° C./5% CO2. […] The medium is exchanged for ENDO basal media supplemented with 1% HSA, 20 μM of LPA (Santa Cruz Biotech; Santa Cruz, Calif.) and the appropriate amount of compound being tested. After 60 min, cells were fixed with 4% paraformaldehyde and stained for actin-phalloidin (ThermoFisher) and V-Cadherin (Cell Signaling), and then were mounted on microscope slides. Coverslips were imaged by fluorescence microscopy and the cell-free holes in the monolayer are measured using Image J. 3.

ROCK1 [7] = biological target: T2, ROCK1 (Homo sapiens (Human), UniProt Q13464); test: Direct filter-binding radiometric kinase assay, IC50 determination; assay type: biochemical
Procedure: Variations in ATP concentrations were tested to better understand potential selectivity in ischemic and diseased tissue where ATP concentrations may be low and impact selectivity.
[…] Both services use a direct filter-binding, radiometric kinase assay with slight variation in protocol.
The top concentration tested was 100 μM for both services. Test compounds were prepared in 100% DMSO at 50× final test concentration and were diluted to 1× in the assay with a final DMSO concentration of 2%.
For one assay, the substrate […] (SEQ ID NO:1) (30 μM) was mixed with reaction buffer (Table 4) and the kinase domain from either the ROCK1 or ROCK2 (as indicated in Table 4). Next, the compounds (in DMSO) were delivered into the mixture via acoustic mixing technology (Echo550, nanoliter range) (SelectScience, Waltham, Mass.), and incubated at RT for 20 min. […] Reactions were then spotted onto P81 ion exchange paper followed by scintillation counting.
The reaction was stopped by the addition of 3% phosphoric acid and 10 μL of the reaction was spotted onto P30 filtermat, washed 3 times in 75 mM phosphoric acid and once in methanol prior to scintillation counting.

ROCK1 [8] = biological target: T2, ROCK1
Procedure: as §1, §2

HUVEC monolayer = test: LPA-treated HUVECs, endothelial monolayer integrity; assay type: cell-based, human; conditions: 1 μM or 10 μM, 20 μM LPA 60 min
Procedure: as §3
To examine HUVEC monolayer integrity, cells were plated on PDL-coated coverslips (Corning) coated with fibronectin, collagen-1 and gelatin. 50,000 cells were seeded on each coverslip situated in a 24-well plate. Cells were grown for 3 days at 37° C./5% CO2. […] The medium was exchanged by Medium 200 supplemented with 0.1% HSA and 20 μM of LPA (Santa Cruz) and incubated for 60 min.
After LPA stimulation, cells were fixed with 4% paraformaldehyde and stained for actin-phalloidin (ThermoFisher, Waltham, Mass.) and V-Cadherin (Cell Signaling, Danvers, Mass.) and mounted on microscope slides. Coverslips were imaged by fluorescence microscopy and the cell free holes in the monolayer are measured using Image J (freeware; https://imagej.nih.gov/ij/).

phospho-MLC2 (Ser19) = test: Transient MCAO stroke model, phospho-MLC2 (Ser19) immunohistochemistry of insular cortex; assay type: in vivo, mouse; conditions: 10 mg/kg I.P.
Procedure: For immunohistochemistry, mice were anesthetized using isoflurane and perfused intracardially using paraformaldehyde (4% PFA), brain and weights were recorded. Brain specimens from fixed animals were frozen in OCT and sectioned using a cryostat.
Frozen tissue sections embedded in OCT were analyzed by immunohistochemistry. The left side of the brain slice contains ischemic tissue due to the MCAO while the right hemisphere acts as a control without ischemia. Staining with these antibodies provide biomarkers for both ischemic area and ROCK2 activation.

[9] = tested on: human umbilical vein endothelial cells (HUVECs); test: LPA-stimulated HUVECs, actin stress fibers and vinculin; assay type: cell-based; conditions: 50 μM, 20 μM LPA 10 min
Procedure: Primary HUVEC cells (Gibco®, Thermo Fisher, Waltham, Mass.) are cultured in endothelial growth media (Gibco® Medium 200 basal media Cat supplemented with Gibco® Large Vessel Endothelial Supplement). HUVECs between passage 1 and 4 are used for all experiments. HUVECs are cultured on poly-D-lysine-treated glass coverslips (Corning, Corning, N.Y.) coated with 70 μg/ml rat collagen I (Corning, Corning, N.Y.) and cultured for 4 d until a confluent monolayer of cells is established. […] Then HUVECs are stimulated with 20 μM LPA for 10 min and subsequently fixed using 4% paraformaldehyde (PFA)/sucrose solution.
After PFA fixation, cells on coverslips are permeabilized with TBS-Triton-X100 (0.1%), blocked with 1% bovine serum albumin and incubated with mouse vinculin primary antibody (Table 16). Vinculin immunolabelling is visualized using a secondary anti-mouse fluorescent antibody (Table 16). Actin cytoskeleton is visualized by staining with fluorescent phalloidin (Table 16), a compound that specifically binds F-actin filaments. Epifluorescence microscopy is used to acquire images of Immuno- and phalloidin fluorescence, respectively.

ROCK2 [10] = biological target: T1, ROCK2; test: ROCK2 inhibition curves, MYPT1 substrate plate assay; assay type: biochemical; conditions: purified ROCK2, MYPT1 substrate
Procedure: Each compound was dissolved at 100 mM in DMSO. This compound-DMSO solution is diluted to 500 μM in dH2O. Serial dilutions were prepared so that a semi-log range of compound is present after being diluted 5× in other assay reagents, from 100 μM through 1 nM.
10 μL of each concentration of each compound was added in duplicate to individual wells of a 96-well Maxisorp plate (ThermoFisher) pre-coated with the ROCK2 substrate MYPT1 (ThermoFisher). dH2O is added as a negative control.
Using a multichannel pipettor, […] of final volume per well was made by the addition of the following of each solution to begin the reaction: 10 μL 20 mM MOPS pH 7.2, 25 mM β-glycerophosphate, 5 mM EGTA, 1 mM Na3VO4, and 1 mM DTT, 10 μL 50 μM ATP, 10 μL 75 mM MgCl2, and 10 μL 1 mU/μL ROCK2 solution. […]
100 μL TMB/E solution was added to each well with a multichannel pipette. Upon sufficient color development, the reaction was stopped using 100 μL stop solution and absorbance read using a Wallac Victor2 plate reader at 450 nm.
Because absorbance values proportional to ROCK2 activity, plotting absorbance at 450 nm versus final concentration of metabolite and parent compound provides inhibition curves. Relative inhibitory profiles were determined through 4PL analysis of these curves. Variations in calculated IC50 are common before assay optimization due to variations in experimental variables.

[11] = tested on: ROCK2 activation (phospho-cofilin); test: Transient MCAO stroke model, phospho-cofilin Western blot left versus right brain; assay type: in vivo, mouse; conditions: 10 mg/kg I.P. within 30 min after MCAO, tissue 24 hr post MCAO
Procedure: The murine intraluminal monofilament model of middle cerebral artery occlusion (MCAO) is used on mice in this study. MCAO involves the insertion of a surgical filament into the external carotid artery and threading it forward into the internal carotid artery until the tip occludes the origin of the MCA, resulting in a cessation of blood flow and subsequent brain infarction in the MCA territory. The technique is used herein to model transient occlusion. If the filament is removed after 1 h, reperfusion is achieved (transient MCAO). This study determines the most efficacious dose and route of administration that reduce Rho-kinase 2 (ROCK2) activation following transient MCAO-induced stroke in mice. The pharmacodynamic response is also determined in this study.
Twenty-eight 9-wk old C57BL/6 (Charles River Laboratories) were used in this study. For surgery, the mouse was placed in a supine position on an infrared heating pad. The fur over the ventral neck was shaved and the skin was disinfected with 70% ethanol and povidone iodine. Under a stereo dissecting microscope, a 1 cm midline incision was made on the neck and retractors were used to expose the left common carotid artery (CCA), the external carotid artery (ECA) and the internal carotid artery (ICA). The arteries were carefully dissected to free them from surrounding nerves and fascia. The ECA was dissected further distally and two 8-0 silk sutures are tied around the ECA stump and a vascular clamp was applied at the bifurcation of the CCA into the ECA and ICA. A small incision was made at the end of ECA stump with Vannas-style spring scissors. A blunt 5-0 monofilament suture (Doccol) was inserted into the incision and advanced from the lumen of the ECA into the ICA for a distance of 9-10 mm beyond the bifurcation of CCA to occlude the origin of MCA. For the mouse model, a distance of 9 mm-11 mm rostral to the CCA bifurcation is inserted. After 60 min., the monofilament was removed. The incision was sutured with 4.0 prolene sutures. […] The mouse is allowed to recover on a heating pad until thermoregulation is re-established.
For Western blot analysis, mice were anesthetized using isoflurane and decapitated. […]
20 μL protease inhibitor (Halt, Protease, Fisher Scientific, Pittsburgh, Pa.) and 10 μL phosphatase inhibitor (Fisher Scientific) were added to 1 mL RIPA buffer (Santa Cruz Biotechnology, Dallas, Tex.). […] The protein concentration of each sample was determined using the DC Protein Assay Kit and following the manufacturer's instructions.
The left and right hemispheres of each brain were homogenized and prepared for Western blotting, and the signal of phospho-cofilin was measured quantitatively by densitometry compared to an internal standard, cyclophilin. […]

[12] = read-out: Compound IC50 ROCK2 10 μM ATP, CRO Eurofins, 10 μM ATP
[13] = read-out: Compound IC50 ROCK1 10 μM ATP, CRO Eurofins, 10 μM ATP

T2 sequence (Q13464 2-1354 limits assumed): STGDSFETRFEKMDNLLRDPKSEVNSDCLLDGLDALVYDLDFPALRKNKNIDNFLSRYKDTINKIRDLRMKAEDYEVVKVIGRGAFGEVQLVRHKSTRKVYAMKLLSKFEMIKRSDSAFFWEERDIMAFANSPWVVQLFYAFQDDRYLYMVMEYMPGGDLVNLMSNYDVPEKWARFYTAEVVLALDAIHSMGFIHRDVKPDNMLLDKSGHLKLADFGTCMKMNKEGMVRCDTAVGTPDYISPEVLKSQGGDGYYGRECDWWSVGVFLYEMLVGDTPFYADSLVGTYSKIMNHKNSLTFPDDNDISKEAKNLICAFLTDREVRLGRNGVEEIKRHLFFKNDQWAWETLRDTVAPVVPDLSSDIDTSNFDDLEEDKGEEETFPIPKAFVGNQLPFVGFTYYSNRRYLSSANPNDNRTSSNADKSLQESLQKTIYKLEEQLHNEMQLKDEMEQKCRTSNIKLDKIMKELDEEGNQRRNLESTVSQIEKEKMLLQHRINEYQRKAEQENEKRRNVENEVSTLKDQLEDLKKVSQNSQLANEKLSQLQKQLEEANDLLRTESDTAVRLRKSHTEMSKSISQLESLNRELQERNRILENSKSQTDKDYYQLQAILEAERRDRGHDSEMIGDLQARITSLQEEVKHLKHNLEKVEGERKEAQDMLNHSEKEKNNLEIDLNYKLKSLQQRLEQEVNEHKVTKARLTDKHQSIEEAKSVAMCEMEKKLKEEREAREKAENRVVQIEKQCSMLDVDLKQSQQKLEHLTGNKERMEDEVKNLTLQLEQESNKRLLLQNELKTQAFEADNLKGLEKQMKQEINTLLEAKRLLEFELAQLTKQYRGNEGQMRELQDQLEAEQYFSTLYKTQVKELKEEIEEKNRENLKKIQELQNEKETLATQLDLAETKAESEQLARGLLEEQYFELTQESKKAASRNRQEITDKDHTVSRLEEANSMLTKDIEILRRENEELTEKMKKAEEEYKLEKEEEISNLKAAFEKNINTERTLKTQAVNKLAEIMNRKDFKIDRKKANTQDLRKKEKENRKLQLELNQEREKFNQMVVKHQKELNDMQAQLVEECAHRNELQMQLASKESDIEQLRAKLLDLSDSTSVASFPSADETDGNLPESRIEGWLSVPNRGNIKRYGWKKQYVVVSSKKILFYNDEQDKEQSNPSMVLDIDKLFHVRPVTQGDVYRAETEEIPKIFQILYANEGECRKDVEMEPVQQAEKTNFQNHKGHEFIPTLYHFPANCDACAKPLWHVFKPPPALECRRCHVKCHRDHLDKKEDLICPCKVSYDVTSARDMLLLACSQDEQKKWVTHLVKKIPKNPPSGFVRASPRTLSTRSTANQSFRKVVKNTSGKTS
T1 sequence (O75116 whole entry, species assumed): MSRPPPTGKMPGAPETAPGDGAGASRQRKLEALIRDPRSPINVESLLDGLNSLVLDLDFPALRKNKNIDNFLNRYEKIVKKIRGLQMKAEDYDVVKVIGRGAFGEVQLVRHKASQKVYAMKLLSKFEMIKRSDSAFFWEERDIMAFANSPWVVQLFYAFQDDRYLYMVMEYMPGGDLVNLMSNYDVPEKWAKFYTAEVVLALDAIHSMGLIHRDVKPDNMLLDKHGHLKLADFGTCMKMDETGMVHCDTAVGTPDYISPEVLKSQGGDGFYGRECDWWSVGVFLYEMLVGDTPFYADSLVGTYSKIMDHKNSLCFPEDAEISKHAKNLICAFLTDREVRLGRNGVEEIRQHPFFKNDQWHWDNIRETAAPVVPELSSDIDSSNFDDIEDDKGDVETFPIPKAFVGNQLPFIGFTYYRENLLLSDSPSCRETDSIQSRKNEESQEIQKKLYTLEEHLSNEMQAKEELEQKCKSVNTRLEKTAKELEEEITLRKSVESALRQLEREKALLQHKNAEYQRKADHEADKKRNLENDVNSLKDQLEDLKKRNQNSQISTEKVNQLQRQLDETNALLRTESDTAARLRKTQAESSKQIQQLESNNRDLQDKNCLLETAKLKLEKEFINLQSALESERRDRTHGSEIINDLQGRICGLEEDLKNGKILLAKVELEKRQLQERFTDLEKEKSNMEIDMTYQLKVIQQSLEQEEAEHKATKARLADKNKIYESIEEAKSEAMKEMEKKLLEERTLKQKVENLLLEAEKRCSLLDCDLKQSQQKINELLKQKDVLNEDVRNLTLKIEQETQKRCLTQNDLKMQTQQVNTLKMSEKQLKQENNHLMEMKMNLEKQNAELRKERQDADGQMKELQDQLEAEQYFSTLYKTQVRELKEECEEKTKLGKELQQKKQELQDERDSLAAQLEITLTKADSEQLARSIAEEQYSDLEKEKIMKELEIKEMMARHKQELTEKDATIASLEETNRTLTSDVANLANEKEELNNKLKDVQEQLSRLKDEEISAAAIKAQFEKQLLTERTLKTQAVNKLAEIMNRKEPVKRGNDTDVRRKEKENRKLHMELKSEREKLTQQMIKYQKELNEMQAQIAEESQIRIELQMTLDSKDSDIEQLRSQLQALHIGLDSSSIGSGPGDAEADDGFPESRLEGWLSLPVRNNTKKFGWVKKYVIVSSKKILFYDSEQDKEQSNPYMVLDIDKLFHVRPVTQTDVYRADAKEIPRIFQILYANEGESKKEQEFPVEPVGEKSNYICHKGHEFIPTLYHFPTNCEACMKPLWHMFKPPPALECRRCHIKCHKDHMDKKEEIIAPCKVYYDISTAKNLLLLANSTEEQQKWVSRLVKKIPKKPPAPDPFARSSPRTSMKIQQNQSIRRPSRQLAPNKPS

## Cc1ccc(C(=O)OCc2ccc([C@@H](CN)C(=O)Nc3ccc4cnccc4c3)cc2)c(C)c1 [AR-13324]
[1]
  % Inhibition of Neurotransmitter Transporter Activity, NET: 96%
[2]
  % Inhibition of Neurotransmitter Transporter Activity, SERT: 94%

## C[C@H](N)C1CCN(S(=O)(=O)c2cccc3cnccc23)CC1
ROCK2 [3]; 10 μM ATP, Table 2, read-out: Compound IC50 ROCK2
  IC50: 730 nM
ROCK2 [3]; CRO Eurofins, 10 μM ATP
  Fold-Difference: 14.1
ROCK2 [3]; CRO Reaction Biology, 10 μM ATP
  Fold-Difference: 2.0
ROCK2 [3]; ROCK1 (70 μM ATP) vs ROCK2 (15 μM ATP) IC50
  Fold-Difference: 57.9
ROCK2 [3]; ROCK1 vs ROCK2 IC50, 10 μM ATP
  Fold-Difference: 14.1
ROCK2 [3]; [12]
  IC50: 730 nM
ROCK2 [3]; read-out: Compound IC50 ROCK2 10 μM ATP, CRO Reaction Biology, 10 μM ATP
  IC50: 720 nM
ROCK2 [3]; read-out: Compound IC50 ROCK2 15 μM ATP, Km ATP 15 μM, Table 3
  IC50: 1000 nM
ROCK2 [3]; read-out: Compound IC50 ROCK2 15 μM ATP, Km ATP 15 μM, Table 7
  IC50: 1000 nM
ROCK2 [4]; Table 5
  Fold-Difference: 0.9
ROCK2 [4]; ratio of dissociation constants ROCK1/ROCK2
  Fractional Selectivity for ROCK2: 0.92
ROCK2 [4]; read-out: ROCK2 KD, average of duplicate determinations, Table 5
  Kd: 160 nM
ROCK2 [4]; read-out: ROCK2 Kd, Table 1
  Kd: 130 nM
[5]
  effect on MLC2 diphosphorylation (pMLC2 T18/S19): reduce MLC2 diphosphorylation
[6]
  effect on MLC2 diphosphorylation (pMLC2 T18/S19): reduce MLC2 diphosphorylation
hBMVEC monolayer
  monolayer integrity / Rho/ROCK activation after LPA: neither concentration reverses the effect of LPA
ROCK1 [7]; 10 μM ATP, Table 2, read-out: Compound IC50 ROCK1
  IC50: 10200 nM
ROCK1 [7]; [13]
  IC50: 10200 nM
ROCK1 [7]; read-out: Compound IC50 ROCK1 10 μM ATP, CRO Reaction Biology, 10 μM ATP
  IC50: 1440 nM
ROCK1 [7]; read-out: Compound IC50 ROCK1 70 μM ATP, Km ATP 70 μM, Table 3
  IC50: 57900 nM
ROCK1 [7]; read-out: Compound IC50 ROCK1 70 μM ATP, Km ATP 70 μM, Table 7
  IC50: 57900 nM
ROCK1 [8]; read-out: ROCK1 KD, average of duplicate determinations, Table 5
  Kd: 155 nM
ROCK1 [8]; read-out: ROCK1 Kd, Table 1
  Kd: 120 nM
HUVEC monolayer
  monolayer integrity after LPA: neither concentration reverses the effect of LPA

## O=S(=O)(c1cccc2cnccc12)N1CCCNCC1 [Fasudil]
phospho-MLC2 (Ser19)
  phospho-MLC2 (Ser19) staining of small blood vessels of insular cortex: reduces the amount of staining
[9]
  actin stress fiber formation upon LPA stimulation: prevents such formation of stress fiber
  vinculin immunofluorescence, integrity of HUVEC monolayer upon LPA stimulation: upregulation of vinculin-positive focal adhesion complexes associated with a decreased cell confluency

## C[C@@H](N)C1CCN(S(=O)(=O)c2cccc3c[n+]([O-])ccc23)CC1 [N-oxide-BA-1049 (R)]
ROCK2 [10]
  inhibitory activity for ROCK2 relative to parent BA-1049 (R): does not exhibit any inhibitory activity
[5]
  effect on MLC2 diphosphorylation (pMLC2 T18/S19): did not show such an effect
[6]
  effect on MLC2 diphosphorylation (pMLC2 T18/S19): do not show such an effect

## CC(N)C1CCN(S(=O)(=O)c2cccc3cnccc23)CC1 (racemic) [BA-1049]
ROCK2 [3]; CRO Eurofins, 10 μM ATP
  Fold-Difference: 12.4
ROCK2 [3]; CRO Reaction Biology, 10 μM ATP, listed as Racemic BA-1049: Lot 1
  Fold-Difference: 2.1
ROCK2 [3]; CRO Reaction Biology, 10 μM ATP, listed as Racemic BA-1049: Lot 2
  Fold-Difference: 2.8
ROCK2 [3]; CRO Upstate Cell Signaling, 10 μM ATP
  Fold-Difference: 12.8
ROCK2 [3]; [12]
  IC50: 550 nM
ROCK2 [3]; read-out: Compound IC50 ROCK2 10 μM ATP, CRO Reaction Biology, 10 μM ATP, listed as Racemic BA-1049: Lot 1
  IC50: 600 nM
ROCK2 [3]; read-out: Compound IC50 ROCK2 10 μM ATP, CRO Reaction Biology, 10 μM ATP, listed as Racemic BA-1049: Lot 2
  IC50: 1020 nM
ROCK2 [3]; read-out: Compound IC50 ROCK2 10 μM ATP, CRO Upstate Cell Signaling, 10 μM ATP
  IC50: 800 nM
ROCK2 [4]; Table 5, listed as Racemic BA-1049: Lot 1
  Fold-Difference: 1.2
ROCK2 [4]; Table 5, listed as Racemic BA-1049: Lot 2
  Fold-Difference: 1.3
ROCK2 [4]; read-out: ROCK2 KD, average of duplicate determinations, Table 5, listed as Racemic BA-1049: Lot 1
  Kd: 46 nM
ROCK2 [4]; read-out: ROCK2 KD, average of duplicate determinations, Table 5, listed as Racemic BA-1049: Lot 2
  Kd: 66 nM
phospho-MLC2 (Ser19)
  phospho-MLC2 (Ser19) staining of small blood vessels of insular cortex: even more effective than Fasudil at reducing small vessel staining
ROCK1 [7]; [13]
  IC50: 6800 nM
ROCK1 [7]; read-out: Compound IC50 ROCK1 10 μM ATP, CRO Reaction Biology, 10 μM ATP, listed as Racemic BA-1049: Lot 1
  IC50: 1280 nM
ROCK1 [7]; read-out: Compound IC50 ROCK1 10 μM ATP, CRO Reaction Biology, 10 μM ATP, listed as Racemic BA-1049: Lot 2
  IC50: 1020 nM
ROCK1 [7]; read-out: Compound IC50 ROCK1 10 μM ATP, CRO Upstate Cell Signaling, 10 μM ATP
  IC50: 10200 nM
[11]
  ratio of phospho-cofilin expression left (MCAO) versus right hemisphere: strongly reduced
ROCK1 [8]; read-out: ROCK1 KD, average of duplicate determinations, Table 5, listed as Racemic BA-1049: Lot 1
  Kd: 54 nM
ROCK1 [8]; read-out: ROCK1 KD, average of duplicate determinations, Table 5, listed as Racemic BA-1049: Lot 2
  Kd: 89 nM
